These results are taken from patent publication US11786600B2, “Cliptac composition” (OTSUKA PHARMACEUTICAL CO., LTD., priority 2016, dated 2023).

One may read the IC50 as the concentration that inhibits the measured activity by half. Usually GI50 stands for the concentration at which growth is held to half of that of the control. Read a high GI50 as lower sensitivity of the cells.

Entries after “also recorded” stand apart in the source; their conditions may differ.

One test deals with T1, BRD4-2 (Homo sapiens, UniProt O60885).
T1 construct: evaluated against both domains of BRD4, BRD4-1 and BRD4-2; Reaction Biology
The experiment in a line: AlphaScreen histone peptide displacement assay, BRD4-2. Format: binding. The text has this: (§1) Experiments performed on HeLa cells.
(§2) FIG. 4: Biological evaluation of Tz-thalidomide against both domains of BRD4, BRD4-1 and BRD4-2. Biological evaluation of Tz-thalidomide (n=2) by AlphaScreen (performed by Reaction Biology).
In general terms: Alpha assays give light when donor and acceptor beads are brought close together.

A further test addresses T2, BRD4 (Homo sapiens, UniProt O60885).
T2 construct: host or cells: HeLa
The experiment in a line: BRD4 degradation by self-assembling CLIPTACs in HeLa cells (immunoblot). The following applies: for BRD4 level, time course: JQ1-TCO 10 μM then Tz-thalidomide 10 μM. Format: cell-based. How it is done:
BRD4 presence was assessed by SDS-PAGE followed by Western Blot using a specific BRD4 antibody.
(§3) HeLa cells (purchased from ATCC) were cultured in Eagle's Minimum Essential Medium (EMEM) supplemented with 10% FBS (Gibco, Life Technologies), 0.1% NEAA (Non-Essential Amino Acid, Gibco, Life Technologies) and 2 mM glutamine and were grown at 37° C. with 5% CO2. A375 and HCT116 cells (purchased from ATCC) were cultured in Dulbecco's Modified Eagle Medium (DMEM) supplemented with 10% FBS (Gibco, Life Technologies) and were grown at 37° C. with 5% CO2.
(§4) The medium was removed and the cells were washed with PBS (2×). A375 and HCT116 cells were lysed with TG Lysis buffer (150 μL per well) and kept on ice for 20 min. The cell lysates were centrifuged at 14000 rpm for 10 min at 4° C. and the protein concentration was determined by a Pierce™ BCA Protein Assay Kit. Samples were normalised, separated on 4-12% NuPAGE gels (Life Technologies) and transferred onto a nitrocellulose membrane (Novex). The membrane was blocked in blocking buffer (Odyssey) at r.t. for 1 hour and subjected to immunodetection using a total ERK1/2 primary antibody (p44/42 MAPK ERK1/2, Cell Signaling Technologies®, 1:1000) and anti-actin antibody (Abcam ab6276, 1:10000) in blocking buffer, at r.t. for 1 hour. After washing 3× with a Tris-buffered saline (TBS) with 0.1% Tween-20 solution (TBST), the membrane was incubated with fluorescently labelled secondary antibody (IRDye800CW Donkey Anti-Rabbit, 1:10 000 and IRDye680RD Donkey Anti-Mouse, 1:10 000) for 1 hour at r.t. in the dark. After washing 2× with a TBS solution, the membrane was imaged on an Li-Cor Biosciences Odyssey system in the 800 nm and 700 nm channels.
The same procedure was followed with HeLa cells using RIPA Lysis buffer (150 μL per well) and 5% non-fat milk in TBST as blocking buffer. Immunodetection was performed using an anti-BRD4 antibody (Bethyl Laboratories, A301:985A100, 1:1000) and anti-actin antibody (Abcam ab6276, 1:10000) in 5% non-fat milk in TBST, at 4° C. for 48 hours.
(§5) HeLa, A375 and HCT116 cells were seeded in 6-well plates at 1.5.10^5 cells/mL with 2 mL/well and allowed to attach overnight before being incubated with the appropriate compounds. TCO-ligand was added from a 1000× stock in DMSO-d6 (2 μL) to the plates. The cells were incubated at 37° C. in an atmosphere of 5% CO2 and air for 18 hours. Tz-Thalidomide was added from a 1000× stock in DMSO-d6 (2 μL) to the plates. The cells were incubated at 37° C. in an atmosphere of 5% CO2 and air for 18 hours.
(§6) When Carfilzomib was used, the compound was added from a 1000× stock in DMSO-d6 (2 μL) 4 hours before the addition of Tz-thalidomide. For control experiments, untagged ligands were added instead of the TCO-compound and methyl-Tz-thalidomide was used instead of Tz-thalidomide. For the time course experiments, the cells were incubated for the indicated time after the addition of Tz-thalidomide and consequently lysed.

Another test addresses T3, BRD4-1 (Homo sapiens, UniProt O60885).
T3 construct: evaluated against both domains of BRD4, BRD4-1 and BRD4-2; Reaction Biology
The test can be described thus: AlphaScreen histone peptide displacement assay, BRD4-1. Type of test: binding.
Text: as §1, §2

For test [1], the system named is ERK1/2. The test can be described thus: ERK1/2 degradation by self-assembling CLIPTACs in A375 cells (immunoblot). The following applies: for ERK1/2 degradation, time course: Probe 1 10 μM then Tz-thalidomide 10 μM. Type of test: cell-based. The protocol:
(§7) ERK1 and 2 levels were assessed by SDS-PAGE followed by Western Blot using a total ERK1/2 antibody. […] At low concentration (0.1 μM), the level of ERK1/2 was unchanged. […] Quantitation of the signal intensities allowed calculation of a DC50 of 490 nM.
as §3, §4, §5, §6

A further test relates to bromodomain family. The test can be described thus: Thermal shift selectivity across the bromodomain family. Type of test: binding. The settings on record: 10 μM, duplicate. The protocol: Finally, the selectivity profile of JQ1-TCO against the BET family was determined by thermal shift assay. […] (Liu et al. (2012) ChromoHub: a data hub for navigators of chromatin-mediated signalling. Bioinformatics 28: 2205-2206)
(b) Selectivity of JQ1-TCO (10 μM, duplicate, thermal shift) across the bromodomain family. (c) Immunoblot for BRD4 and Actin showing JQ1-TCO concentration dependent downregulation of BRD4 protein levels. HeLa cells were treated with JQ1-TCO for 18 hours followed by treatment with Tz-thalidomide (10 μM) for 18 hours. (d) Immunoblot for BRD4 and Actin showing Tz-thalidomide concentration dependent downregulation of BRD4 protein levels. HeLa cells were treated with JQ1-TCO (10 μM) for 18 hours followed by treatment with Tz-thalidomide for 18 hours. (e) Immunoblot for BRD4 and Actin showing time-dependent downregulation of BRD4 protein levels. HeLa cells were treated with JQ1-TCO (10 μM) for 18 hours followed by treatment with Tz-thalidomide (10 μM) for the indicated time. […] HeLa cells were treated with (−)JQ1-TCO for 18 hours followed by treatment with Tz-thalidomide for 18 hours. […] HeLa cells were treated with JQ1-TCO for 18 hours followed by treatment with Methyl-Tz-thalidomide for 18 hours. […] Experiments performed on HeLa cells.

A further test has as its target T4, ERK2 (Homo sapiens, UniProt P28482).
T4 construct: host or cells: HCT116
The test can be described thus: ERK2 degradation by self-assembling CLIPTACs in HCT116 cells (immunoblot). Format: cell-based. The following applies: high concentrations of Probe 1 18 h then Tz-thalidomide 10 μM 18 h. How it is done:
as §7, §3
The medium was removed and the cells were washed with PBS (2×). A375 and HCT116 cells were lysed with TG Lysis buffer (150 μL per well) and kept on ice for 20 min. The cell lysates were centrifuged at 14000 rpm for 10 min at 4° C. and the protein concentration was determined by a Pierce™ BCA Protein Assay Kit. Samples were normalised, separated on 4-12% NuPAGE gels (Life Technologies) and transferred onto a nitrocellulose membrane (Novex). […]

Another test relates to A375 cells. The test can be described thus: Activity in A375 cells (GI50). The settings on record: Homo sapiens, A-375. Format: cell-based.
Test [2] concerns ERK1/2. The test can be described thus: ERK1/2 degradation by self-assembling CLIPTACs in A375 cells (immunoblot). Type of test: cell-based.
Setting [3] is: 4-hour pre-treatment with Carfilzomib (1 μM) in the CLIPTAC experiment.

T4 sequence (P28482 whole entry): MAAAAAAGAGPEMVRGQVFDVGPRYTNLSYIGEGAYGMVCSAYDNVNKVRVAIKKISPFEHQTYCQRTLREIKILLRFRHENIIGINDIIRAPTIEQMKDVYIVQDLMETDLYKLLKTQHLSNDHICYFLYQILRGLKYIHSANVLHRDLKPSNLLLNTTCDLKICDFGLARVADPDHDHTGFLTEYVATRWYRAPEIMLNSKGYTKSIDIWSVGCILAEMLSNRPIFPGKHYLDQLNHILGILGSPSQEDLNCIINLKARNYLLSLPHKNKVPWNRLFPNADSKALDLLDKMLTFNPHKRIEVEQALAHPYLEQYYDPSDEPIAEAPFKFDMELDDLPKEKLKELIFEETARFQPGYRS

On to `Cc1sc2c(c1C)C(c1ccc(Cl)cc1)=N[C@H](CC(=O)NCCCNC(=O)OC1CC/C=C/CCC1)c1nnc(C)n1-2` (single isomer, unassigned; (-)) [(−)JQ1-TCO], for which the IC50 worked out at 24300 ± 920 nM at BRD4-2 and 13500 ± 210 nM at BRD4-1. At BRD4 ((−)JQ1-TCO at any concentration tested, then Tz-thalidomide 10 μM), the BRD4 degradation entry is recorded as “no BRD4 degradation”.
For the molecule `CC(C)C[C@H](NC(=O)[C@H](CCc1ccccc1)NC(=O)CN1CCOCC1)C(=O)N[C@@H](Cc1ccccc1)C(=O)N[C@@H](CC(C)C)C(=O)[C@@]1(C)CO1` [Carfilzomib, reference compound], at BRD4 (setting [3]), the BRD4 level result is recorded as “remained the same as in untreated cells”. In the test on ERK1/2 [1] (setting [3]), the ERK1/2 degradation entry was “rescued”.
As to `Cc1sc2c(c1C)C(c1ccc(Cl)cc1)=N[C@@H](CC(=O)NCCCNC(=O)OC1CC/C=C/CCC1)c1nnc(C)n1-2` (stereo partly drawn) [JQ1-TCO, (4E)-Cyclooct-4-en-1-yl N-(3-{2-[(9S)-7-(4-chlorophenyl)-4,5,13-trimethyl-3-thia-1,8,11,12-tetraazatricyclo[8.3.0.0^2,6]trideca-2(6),4,7,10,12-pentaen-9-yl]acetamido}propyl)carbamate], the concentration for half-maximal inhibition (IC50) at BRD4-2 was 63 ± 2 nM; at BRD4-1, 16 ± 3 nM. For the same molecule, the results for the “BRD4 level, time course” value on BRD4 (after 16 hours), on BRD4 (after 24 hours) and at BRD4 (up to 8 hours) were “clearly dropped”, “complete degradation” and “unchanged”, respectively. The BRD4 degradation entry at BRD4 (JQ1-TCO 1 and 0.3 μM 18 h, then Tz-thalidomide 10 μM 18 h) is reported as “partial degradation”; on BRD4 (JQ1-TCO 10 and 3 μM 18 h, then Tz-thalidomide 10 μM 18 h) it was “complete degradation”. Further, at BRD4 (JQ1-TCO 18 h followed by fixed Tz-thalidomide (10 μM) 18 h, read-out: 50% degradation concentration (DC50) of BRD4), the DC50 turned out to be 420 nM. Moreover, on BRD4 (compound alone), the BRD4 level entry was “unaffected”. Besides, in the test on bromodomain family, the “Selectivity across the bromodomain family (thermal shift)” value was “bind selectively to subfamily II”.
`C=CC(=O)Nc1ccccc1Nc1nc(Nc2ccnc(C#CCCNC(=O)OC3CC/C=C/CCC3)c2)ncc1Cl` (stereo not drawn) [Probe 1, (4E)-Cyclooct-4-en-1-yl N-(4-{4-[(5-chloro-4-{[2-(prop-2-enamido)phenyl]amino}pyrimidin-2-yl)amino]pyridin-2-yl}but-3-yn-1-yl) carbamate]: the ERK2 degradation result at ERK2 is given as “complete degradation”. The molecule further returned a GI50 in the test with A375 cells of 470 ± 140 nM. Also, the ERK1/2 level entry in the test on ERK1/2 [1] (Probe 1 0.1 μM 18 h then Tz-thalidomide 10 μM 18 h) was “unchanged”; in the test with ERK1/2 [1] (compound alone) it was “unmodified”. Also, the entries for the “ERK1/2 degradation, time course” value in the test with ERK1/2 [1] (after 8 hours) and in the test with ERK1/2 [1] (after 16 hours) were “partially” and “complete”, respectively. In addition, in the test with ERK1/2 [1] (Probe 1 0.3 and 1 μM 18 h then Tz-thalidomide 10 μM 18 h), the ERK1/2 degradation entry was “Partial degradation”. This molecule also gave a DC50 in the test on ERK1/2 [1] (Probe 1 18 h then Tz-thalidomide 10 μM 18 h) of 490 nM. For the same molecule, the ERK1/2 suppression entry in the test on ERK1/2 [1] (Probe 1 at higher concentrations 18 h then Tz-thalidomide 10 μM 18 h) is listed as “complete”.
Consider `Cc1nnc(-c2ccc(CNC(=O)CCCCCOc3cccc4c3C(=O)N(C3CCC(=O)NC3=O)C4=O)cc2)nn1` (stereo not drawn) [Tz-thalidomide, 6-{[2-(2,6-Dioxopiperidin-3-yl)-1,3-dioxo-2,3-dihydro-1H-isoindol-4-yl]oxy}-N-{[4-(6-methyl-1,2,4,5-tetrazin-3-yl)phenyl]methyl}hexanamide], for which the BRD4 degradation entry at BRD4 (JQ1-TCO 10 μM 18 h, then Tz-thalidomide 10 and 3 μM 18 h) was “completely degraded”; at BRD4 (JQ1-TCO 10 μM 18 h, then Tz-thalidomide at lower concentrations 18 h), “partially”. In addition, the BRD4 level result at BRD4 (compound alone) was “unaffected”. Besides, the ERK1/2 level entry with ERK1/2 [1] (compound alone) is recorded as “unmodified”. Further, the ERK1/2 degradation profile entry in the test on ERK1/2 [2] (Probe 1 1 μM 4 hours then Tz-thalidomide 1 μM 18 hours) is reported as “best degradation profile”. Moreover, in the test with ERK1/2 [2] (Probe 1 4 h then Tz-thalidomide 0.1 and 0.3 μM), the ERK1/2 degradation result was “not observed”.
For the molecule `Cc1nnc(-c2ccc(CNC(=O)CCCCCOc3cccc4c3C(=O)N(C3CCC(=O)N(C)C3=O)C4=O)cc2)nn1` (stereo not drawn) [methyl-Tz-thalidomide, N-{[4-(6-Methyl-1,2,4,5-tetrazin-3-yl)phenyl]methyl}-6-{[2-(1-methyl-2,6-dioxopiperidin-3-yl)-1,3-dioxo-2,3-dihydro-1H-isoindol-4-yl]oxy}hexanamide], the BRD4 level entry is reported as “remained unchanged” at BRD4 (JQ1-TCO 10 μM then methyl-Tz-thalidomide 10 μM) and “no BRD4 degradation” at BRD4 (JQ1-TCO 10 μM then methyl-Tz-thalidomide 10 μM, listed as Methyl-Tz-thalidomide). In addition, in the test on ERK1/2 [1] (Probe 1 18 h then methyl-Tz-thalidomide 10 μM 18 h), the “ERK1/2 degradation compared with Tz-thalidomide” value was “far less effective; also recorded: reduced ERK1/2 degradation”.
